Experimental data from ChEMBL document CHEMBL6121067, “Mitophagy in Neurodegenerative Diseases: Mechanisms of Action and the Advances of Drug Discovery” (J Med Chem, 2025).
In brackets after ≈: the same amount, converted by molar mass.

Legend:
[1] = Solubility of compound at pH 6.8 incubated for 4 hrs by HPLC or LC-MS/MS analysis; assay type: physicochemical; details: buffer
[2] = target: Serine/threonine-protein kinase PINK1, mitochondrial (Homo sapiens, UniProt Q9BXM7); assay: Activation of full length recombinant PINK1 (unknown origin) extracted from Escherichia coli BL21 (DE3) by UV absorbance based analysis
[3] = target: T1, Ubiquitin carboxyl-terminal hydrolase 30 (Homo sapiens, UniProt Q70CQ3); assay: Inhibition of USP30 (unknown origin)
T1 sequence (Q70CQ3 whole entry): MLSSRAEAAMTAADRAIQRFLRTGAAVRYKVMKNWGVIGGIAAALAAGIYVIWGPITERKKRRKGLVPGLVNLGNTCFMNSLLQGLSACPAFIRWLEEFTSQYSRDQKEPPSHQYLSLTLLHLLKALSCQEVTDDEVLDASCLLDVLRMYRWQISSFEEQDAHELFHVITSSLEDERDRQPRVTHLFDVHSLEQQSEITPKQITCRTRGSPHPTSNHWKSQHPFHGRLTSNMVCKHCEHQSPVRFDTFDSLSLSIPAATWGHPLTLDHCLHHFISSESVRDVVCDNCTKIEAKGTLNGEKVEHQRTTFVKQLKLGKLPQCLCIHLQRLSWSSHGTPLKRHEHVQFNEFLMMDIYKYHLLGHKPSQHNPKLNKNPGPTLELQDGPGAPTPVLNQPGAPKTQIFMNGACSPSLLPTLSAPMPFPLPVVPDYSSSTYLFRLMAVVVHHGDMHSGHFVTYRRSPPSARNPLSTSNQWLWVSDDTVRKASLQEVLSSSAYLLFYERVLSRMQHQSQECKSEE

Chain of Serine/threonine-protein kinase PINK1, mitochondrial (Q9BXM7 whole entry): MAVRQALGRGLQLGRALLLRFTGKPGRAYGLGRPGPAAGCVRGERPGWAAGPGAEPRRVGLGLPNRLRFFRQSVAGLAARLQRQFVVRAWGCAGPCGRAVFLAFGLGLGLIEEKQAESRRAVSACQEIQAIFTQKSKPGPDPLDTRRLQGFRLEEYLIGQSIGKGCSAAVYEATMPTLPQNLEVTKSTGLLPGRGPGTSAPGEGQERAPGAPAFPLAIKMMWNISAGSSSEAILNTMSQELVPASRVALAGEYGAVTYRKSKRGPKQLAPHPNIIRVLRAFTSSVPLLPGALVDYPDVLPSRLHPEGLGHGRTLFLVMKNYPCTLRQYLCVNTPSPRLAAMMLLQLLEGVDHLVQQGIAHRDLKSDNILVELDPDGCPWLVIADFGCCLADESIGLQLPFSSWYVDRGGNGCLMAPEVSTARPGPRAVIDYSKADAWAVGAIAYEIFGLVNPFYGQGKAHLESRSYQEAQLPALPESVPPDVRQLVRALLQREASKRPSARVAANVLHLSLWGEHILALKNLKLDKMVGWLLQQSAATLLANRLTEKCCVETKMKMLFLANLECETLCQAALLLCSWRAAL

Structure (SMILES)	solubility at 4 h [1]	EC50 [2]	IC50 [3]
CO[C@@H](C(=O)N1Cc2c(-c3ccc(C(=O)N4CCCc5ccccc54)cc3)cnn2C[C@@H]1C(C)C)c1ccccc1	3.8 µg/mL (≈ 6.93 µM)	40 nM	–
COc1cc(C(=O)N[C@@H]2CCN(C#N)C2)ccc1-c1cnn(C)c1	–	–	15 nM
C[C@@H](C(=O)N1Cc2c(-c3ccc(C(=O)N4CCCc5ccccc54)cc3)cnn2C[C@@H]1C)c1ccccc1	1.5 µg/mL (≈ 2.97 µM)	1500 nM	–
CC(=O)N1Cc2c(-c3ccc(C(=O)N4CCCc5ccccc54)cc3)cnn2C[C@@H]1C	–	14500 nM	–
N#CN1CC[C@H](CNC(=O)c2cc(-c3cccc(Cl)c3)no2)C1	–	–	15 nM
CC(C)[C@H]1Cn2ncc(-c3ccc(C(=O)N4CCCc5ccccc54)cc3)c2CN1C(=O)Cc1ccccc1	3.6 µg/mL (≈ 6.94 µM)	2900 nM	–
CCn1c(-c2ccc(OCC(=O)O)c(OC)c2)nc(-c2ccccc2)c1-c1ccccc1	–	–	5120 nM
CO[C@@H](C(=O)N1Cc2c(-c3ccc(C(=O)N4CCCc5ccccc54)cc3)cnn2C[C@@H]1C(C)C)c1cnn(C)c1	65 µg/mL (≈ 118 µM)	150 nM	–
COc1cc(-c2nc(-c3ccccc3)c(-c3ccccc3)n2C2CC2)ccc1OCC(=O)O	–	–	8430 nM
N#CN1CC[C@@H](NC(=O)N2CC(c3ccn(-c4ccccc4)n3)C2)C1	–	–	15 nM
N#CN1CC[C@@H](NC(=O)c2cc(-c3ccccc3Oc3ccccc3)n[nH]2)C1	–	–	1.5 nM
